Results as given in the supplement of paper PMC7244745.
Structures can show the parent of a compound that is named as a salt. ± gives the uncertainty stated by the source.

Legend:
[1] = system: Klebsiella pneumoniae ATCC 13882; assay: onset of ureolytic pH increase; higher = more delayed ureolysis (inhibition)
Protocol: (§1)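 Klebsiella pneumoniae ATCC 13882 (start OD600 0.05) grown in M9U medium with 40 mM urea and phenol red plus inhibitor, in triplicate in 96-well plates. A557 and OD630 were read every 15 min for 24 h. Ureolysis was followed as the pH-related A557-A630: onset time, Gompertz-fit rate and final value. Growth was followed as OD630.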

[2] = system: Klebsiella pneumoniae ATCC 13882; assay: final OD630 (growth) after 24 h; higher = more bacterial growth; extreme values may be limits of the assay
Protocol: as §1

[3] = system: Klebsiella pneumoniae ATCC 13882; assay: rate of pH (A557-A630) increase, Gompertz fit (10^-4 s-1); higher = faster ureolysis; extreme values may be limits of the assay
Protocol: as §1

[4] = system: Klebsiella pneumoniae ATCC 13882; assay: final pH-related absorbance (A557-A630) after 24 h (absorbance units); higher = more ureolysis; extreme values may be limits of the assay
Protocol: as §1

| SMILES | onset of ureolytic pH increase ([1]; 0.1 mM) | onset of ureolytic pH increase ([1]; 1 mM) | onset of ureolytic pH increase ([1]; 10 mM) | final OD630 ([2]; 0.1 mM) | final OD630 ([2]; 1 mM) | final OD630 ([2]; 10 mM) | rate of pH ([3]; 0.1 mM) | rate of pH ([3]; 1 mM) | rate of pH ([3]; 10 mM) | final pH-related absorbance ([4]; 0.1 mM) | final pH-related absorbance ([4]; 1 mM) | final pH-related absorbance ([4]; 10 mM) | further results |
| --- | --- | --- | --- | --- | --- | --- | --- | --- | --- | --- | --- | --- | --- |
| N=C(N)N [Guanidine hydrochloride] | 7.22 ± 0.107 h | 7.08 ± 0.095 h | 7.26 ± 0.2 h | 0.498 ± 0.006 | 0.505 ± 0.006 | 0.503 ± 0.004 | 1.94 ± 0.086 | 2.02 ± 0.066 | 2.03 ± 0.17 | 0.249 ± 0.007 | 0.27 ± 0.011 | 0.286 ± 0.009 |  |
| c1c[nH]cn1 [Imidazole] | 9.38 ± 0.0583 h | 9.42 ± 0.118 h | 10.32 ± 0.0533 h | 0.423 ± 0.0002 | 0.42 ± 0.0034 | 0.439 ± 0.0039 | 1.457 ± 0.0067 | 1.48 ± 0.046 | 1.43 ± 0.029 | 0.163 ± 0.0003 | 0.164 ± 0.0067 | 0.169 ± 0.0015 |  |
| OB(O)c1ccc(Br)cc1 [4-bromophenylboronic acid] |  |  |  |  |  |  |  |  |  |  |  |  | onset of ureolytic pH increase ([1]; 0.0017 mM): 12.4 ± 0.317 h; onset of ureolytic pH increase ([1]; 0.017 mM): 0 min; onset of ureolytic pH increase ([1]; 0.173 mM): > 25 h; final OD630 ([2]; 0.0017 mM): 0.451 ± 0.0066; final OD630 ([2]; 0.017 mM): 0; final OD630 ([2]; 0.173 mM): 0; rate of pH ([3]; 0.0017 mM): 0.0566 ± 0.0019; rate of pH ([3]; 0.017 mM): 0.0294 ± 0.0052; rate of pH ([3]; 0.173 mM): 0; final pH-related absorbance ([4]; 0.0017 mM): 0.12 ± 0.0018; final pH-related absorbance ([4]; 0.017 mM): 0.269 ± 0.042; final pH-related absorbance ([4]; 0.173 mM): 0 |
| OB(O)O [Boric acid] | 9.85 ± 0.103 h | 10.3 ± 0.567 h | > 15 h | 0.437 ± 0.0082 | 0.432 ± 0.0018 | 0.297 ± 0.0064 | 1.62 ± 0.03 | 1.48 ± 0.2 | 0 | 0.409 ± 0.0087 | 0.418 ± 0.018 | 0 |  |
| CCOC(=O)[C@@H](N)CS [L-cysteine ethyl ester hydrochloride] | 7.359 ± 0.0667 h | > 15 h | > 15 h | 0.547 ± 0.018 | 0.299 ± 0.003 | 0.422 ± 0.045 | 2.06 ± 0.11 | 0 | 0 | 0.394 ± 0.031 | 0 | 0 |  |
| CNC(N)=O [Methylurea] | 10.25 ± 0.0267 h | 10.25 ± 0.04 h | 10.38 ± 0.016 h | 0.418 ± 0.0043 | 0.427 ± 0.0012 | 0.419 ± 0.0011 | 1.54 ± 0.021 | 1.531 ± 0.014 | 1.551 ± 0.0041 | 0.17 ± 0.0022 | 0.174 ± 0.001 | 0.173 ± 0.001 |  |
| Oc1ccccc1O [Pyrocatechol] | 11.07 ± 0.07 h | 14.6 ± 0.35 h |  | 0.425 ± 0.0055 | 0.462 ± 0.0061 | 0 | 1.789 ± 0.015 | 1.74 ± 0.016 |  | 0.397 ± 0.0008 | 0.369 ± 0.011 |  |  |
| NC(=O)CC[C@H](N)C(=O)O [L-glutamine] |  |  |  |  |  |  |  |  |  |  |  |  | onset of ureolytic pH increase ([1]; 0.009 mM): 9.446 ± 0.0567 h; onset of ureolytic pH increase ([1]; 0.091 mM): 9.264 ± 0.03 h; onset of ureolytic pH increase ([1]; 9.06 mM): 9.369 ± 0.065 h; final OD630 ([2]; 0.009 mM): 0.515 ± 0.01; final OD630 ([2]; 0.091 mM): 0.549 ± 0.014; final OD630 ([2]; 9.06 mM): 0.531 ± 0.0093; rate of pH ([3]; 0.009 mM): 1.675 ± 0.015; rate of pH ([3]; 0.091 mM): 1.74 ± 0.052; rate of pH ([3]; 9.06 mM): 1.78 ± 0.018; final pH-related absorbance ([4]; 0.009 mM): 0.223 ± 0.0054; final pH-related absorbance ([4]; 0.091 mM): 0.219 ± 0.005; final pH-related absorbance ([4]; 9.06 mM): 0.222 ± 0.0029 |
| C=CCNC(N)=S [Allylthiourea] | 9.392 ± 0.0683 h | 9.93 ± 0.483 h | 12.93 ± 0.123 h | 0.417 ± 0.013 | 0.397 ± 0.015 | 0.366 ± 0.0047 | 1.47 ± 0.046 | 1.454 ± 0.0015 | 1.383 ± 0.0037 | 0.159 ± 0.0052 | 0.154 ± 0.0052 | 0.135 ± 0.0034 |  |
| CN1CC(=O)NC1=N [Creatinine] | 9.588 ± 0.07 h | 9.675 ± 0.0283 h | 9.58 ± 0.14 h | 0.505 ± 0.0042 | 0.495 ± 0.013 | 0.517 ± 0.0028 | 2.186 ± 0.011 | 2.17 ± 0.023 | 2.19 ± 0.038 | 0.146 ± 0.0004 | 0.158 ± 0.0061 | 0.157 ± 0.005 |  |
| NCCNCCNCCN [Triethylenetetraamine] |  |  |  | 0.448 ± 0.091 | 0.384 ± 0.017 | 0 |  |  |  |  |  |  |  |
